Measurements reported in patent US4621090A, “Antifungal compositions” (Toyo Soda Manufacturing Co., Ltd., priority 1983, dated 1986).
Converted amounts (≈) assume the structure as drawn. Like-named read-outs stand apart in the source and are kept apart here.

Legend:
[1] = system: Cryptococcus neoformans MTU-13002; assay: Growth inhibition test; format: cell-based; settings: MTU13002, 48 h, read-out: Minimum inhibitory concentration
ICR mice [2] = assay: Skin irritation test using ICR mice; format: in vivo; settings: Cutaneous, 1% direct application once a day for 14 consecutive days
[3] = system: Trichophyton mentagraphytes; assay: Medical treatment of guinea pigs experimentally infected with Trichophyton mentagraphytes; settings: 1% emulsion once a day; for Scope of symptoms (0-4): mean of 6 guinea pigs; for Reversed cultivation: skin cut into 10 pieces, cultivated 14 days at 27° C.
[4] = system: Aspergillus niger MTU-06051; assay: Growth inhibition test; format: cell-based; settings: read-out: Minimum inhibitory concentration
[5] = system: Epidermophyton floccosum MTU-21007; assay: Growth inhibition test; format: cell-based; settings: MTU21007, 336 h, read-out: Minimum inhibitory concentration
[6] = system: Fusarium pedrosoi MTU-22009; assay: Growth inhibition test; format: cell-based; settings: MTU22009, 168 h, after 7 days cultivation at 27° C., read-out: Minimum inhibitory concentration
[7] = system: Microsporum gypseum MTU-20005; assay: Growth inhibition test; format: cell-based; settings: Nannizzia gypsea, read-out: Minimum inhibitory concentration
[8] = system: Phialophora verrucosa MTU-23001; assay: Growth inhibition test; format: cell-based; settings: read-out: Minimum inhibitory concentration
[9] = system: Trichophyton violaceum MTU-19021; assay: Growth inhibition test; format: cell-based; settings: read-out: Minimum inhibitory concentration
[10] = system: Aspergillus fumigatus MTU-06002; assay: Growth inhibition test; format: cell-based; settings: MTU06002, 168 h, read-out: Minimum inhibitory concentration
[11] = system: Microsporum canis MTU-20010; assay: Growth inhibition test; format: cell-based; settings: read-out: Minimum inhibitory concentration
[12] = system: Trichophyton mentagraphytes MTU-19024; assay: Minimum inhibitory concentration, anti-Trichophyton mentagraphytes activity test, strain MTU-19024; format: cell-based; settings: Trichophyton, MTU19024, Sabouraud's dextrose agar, 27° C., a week
Description: (§1) The activity was tested by the 10 time-step dilution test, using the Sabouraud's dextrose agar culture medium (2% dextrose, 1% pepton and 1.5% agar; pH 6.5±). A platinum loopful (about 10 μl) spore suspension (prepared from a reserved strain of Trichlophyton mentagraphytes and containing 1×10^6 cells/ml) was applied in the form of drawn lines on a plate of a culture medium containing the active ingredients. The culture medium plate was kept at 27° C. for a week and then visually observed to see if any colonies had formed. The minimum inhibitory concentration was defined as the minimum concentration with which formation of distinct colonies on the culture medium plate was not observed.

[13] = system: Fonsecaea compactum MTU-22023; assay: Growth inhibition test; format: cell-based; settings: Fonsecaea compacta, read-out: Minimum inhibitory concentration
ICR mice [14] = assay: Acute toxicity test using ICR mice; format: in vivo
Description: The acute toxicity was tested by applying active ingredients of the antifungal compositions of this invention as shown in Table 4 to ICR mice (male, age-5 weeks, 25 g ±weight, 5 mice in each group). Observation continued for 3 more weeks starting from the last administration.

[15] = system: Histoplasma capsulatum MTU-16001; assay: microbe, parasite or virus in culture; format: cell-based; settings: MTU16001, 336 h, read-out: Minimum inhibitory concentration
[16] = system: Trichophyton mentagraphytes MTU-19031; assay: Minimum inhibitory concentration, anti-Trichophyton mentagraphytes activity test, strain MTU-19031; format: cell-based; settings: Trichophyton, MTU19031, Sabouraud's dextrose agar, 27° C., a week
Description: as §1

[17] = system: Blastomyces dermatitidis MTU-17009; assay: Growth inhibition test; format: cell-based; settings: MTU17009, 336 h, read-out: Minimum inhibitory concentration
[18] = after 14 days cultivation at 27° C.
[19] = Intraperitoneal, 100 mg/kg once a day for 6 consecutive days
[20] = Intraperitoneal, 500 mg/kg once
[21] = Oral, 500 mg/kg once a day for 6 consecutive days

## COc1cccc(N(C)C(=S)Oc2ccc3ccccc3c2)n1 [compound 7, O--2-Naphthyl N--methyl-N--(6-methoxy-2-pyridyl)thiocarbamate]
[1]; after 2 days cultivation at 27° C.
  MIC: 0.05 µg/mL (≈ 0.154 µM)
ICR mice [2]
  Number of skin irritation symptoms: 0
[3]; 5 days after the infection
  Scope of symptoms (0-4): 0
[3]; 9 days after the infection
  Scope of symptoms (0-4): 1.33
[3]; 13 days after the infection
  Scope of symptoms (0-4): 1.66
[3]; 17 days after the infection
  Scope of symptoms (0-4): 0.66
[3]; 21 days after the infection
  Scope of symptoms (0-4): 0.33
[3]
  Reversed cultivation: 1/60
[4]; MTU06051, 168 h, after 7 days cultivation at 27° C.
  MIC: 0.05 µg/mL (≈ 0.154 µM)
[4]; MTU06051, 336 h, after 14 days cultivation at 27° C.
  MIC: 0.05 µg/mL (≈ 0.154 µM)
[5]; [18]
  MIC: 0.05 µg/mL (≈ 0.154 µM)
[6]
  MIC: 0.5 µg/mL (≈ 1.54 µM)
[7]; MTU20005, 168 h, after 7 days cultivation at 27° C.
  MIC: 0.05 µg/mL (≈ 0.154 µM)
[7]; MTU20005, 336 h, after 14 days cultivation at 27° C.
  MIC: 0.05 µg/mL (≈ 0.154 µM)
[8]; MTU23001, 168 h, after 7 days cultivation at 27° C.
  MIC: 0.5 µg/mL (≈ 1.54 µM)
[8]; MTU23001, 336 h, after 14 days cultivation at 27° C.
  MIC: 0.5 µg/mL (≈ 1.54 µM)
[9]; MTU19021, 168 h, after 7 days cultivation at 27° C.
  MIC: 0.05 µg/mL (≈ 0.154 µM)
[9]; MTU19021, 336 h, after 14 days cultivation at 27° C.
  MIC: 0.05 µg/mL (≈ 0.154 µM)
[10]; after 7 days cultivation at 27° C.
  MIC: 0.5 µg/mL (≈ 1.54 µM)
[11]; MTU20010, 168 h, after 7 days cultivation at 27° C.
  MIC: 0.05 µg/mL (≈ 0.154 µM)
[11]; MTU20010, 336 h, after 14 days cultivation at 27° C.
  MIC: 0.05 µg/mL (≈ 0.154 µM)
[12]
  MIC: 0.05 µg/mL (≈ 0.154 µM)
[13]; MTU22023, 168 h, after 7 days cultivation at 27° C.
  MIC: 0.5 µg/mL (≈ 1.54 µM)
[13]; MTU22023, 336 h, after 14 days cultivation at 27° C.
  MIC: 0.5 µg/mL (≈ 1.54 µM)
ICR mice [14]; [19]
  Number of deaths: 0
  Number of symptomatic weight decrease: 0
ICR mice [14]; [20]
  Number of deaths: 0
  Number of symptomatic weight decrease: 0
ICR mice [14]; [21]
  Number of deaths: 0
  Number of symptomatic weight decrease: 0
[15]
  MIC: 0.5 µg/mL (≈ 1.54 µM)
[16]
  MIC: 0.05 µg/mL (≈ 0.154 µM)
[17]; [18]
  MIC: 0.5 µg/mL (≈ 1.54 µM)

## COc1cccc(N(C)C(=S)Oc2ccc3c(c2)CCCC3)n1 [compound 11, O--5,6,7,8-Tetrahydro-2-naphthyl N--N--(6-methoxy-2-pyridyl)-N--methylthiocarbamate]
[1]
  MIC: 0.5 µg/mL (≈ 1.52 µM)
ICR mice [2]
  Number of skin irritation symptoms: 0
[3]; 5 days after the infection
  Scope of symptoms (0-4): 0.66
[3]; 9 days after the infection
  Scope of symptoms (0-4): 2.0
[3]; 13 days after the infection
  Scope of symptoms (0-4): 2.0
[3]; 17 days after the infection
  Scope of symptoms (0-4): 0
[3]; 21 days after the infection
  Scope of symptoms (0-4): 0
[3]
  Reversed cultivation: 1/60
[4]; MTU06051, 168 h
  MIC: 0.05 µg/mL (≈ 0.152 µM)
[4]; MTU06051, 336 h
  MIC: 0.05 µg/mL (≈ 0.152 µM)
[5]
  MIC: 0.05 µg/mL (≈ 0.152 µM)
[7]; MTU20005, 168 h
  MIC: 0.5 µg/mL (≈ 1.52 µM)
[7]; MTU20005, 336 h
  MIC: 0.05 µg/mL (≈ 0.152 µM)
[8]; MTU23001, 168 h
  MIC: 0.5 µg/mL (≈ 1.52 µM)
[8]; MTU23001, 336 h
  MIC: 0.5 µg/mL (≈ 1.52 µM)
[9]; MTU19021, 168 h
  MIC: 0.05 µg/mL (≈ 0.152 µM)
[9]; MTU19021, 336 h
  MIC: 0.05 µg/mL (≈ 0.152 µM)
[10]
  MIC: 0.5 µg/mL (≈ 1.52 µM)
[11]; MTU20010, 168 h
  MIC: 0.05 µg/mL (≈ 0.152 µM)
[11]; MTU20010, 336 h
  MIC: 0.05 µg/mL (≈ 0.152 µM)
[12]
  MIC: 0.05 µg/mL (≈ 0.152 µM)
[13]; MTU22023, 168 h
  MIC: 0.5 µg/mL (≈ 1.52 µM)
[13]; MTU22023, 336 h
  MIC: 0.5 µg/mL (≈ 1.52 µM)
ICR mice [14]; [19]
  Number of deaths: 0
  Number of symptomatic weight decrease: 0
ICR mice [14]; [20]
  Number of deaths: 0
  Number of symptomatic weight decrease: 0
ICR mice [14]; [21]
  Number of deaths: 0
  Number of symptomatic weight decrease: 0
[15]
  MIC: 0.5 µg/mL (≈ 1.52 µM)
[16]
  MIC: 0.05 µg/mL (≈ 0.152 µM)
[17]
  MIC: 0.5 µg/mL (≈ 1.52 µM)
